Data published in patent US9801873B2, “Methods for treating humans having brain cancer” (priority 2008, dated 2017).
Like-named read-outs stand apart in the source and are kept apart here.

Legend:
[1] = test system: A2780 ovarian tumors; conditions: for activity in A2780 ovarian tumor model: 3 weekly intra-peritoneal administrations; for tumor growth delay (TGD): 3 weekly intravenous injections
Experimental: Anti-tumor efficacy was evaluated based on tumor growth delay (TGD) in mice and response rate in mice and humans.
Animals were weighed and monitored twice weekly, and tumor volumes were measured until an endpoint was met (2000 mm^3 or 60 days). Anti-tumor efficacy was evaluated based on tumor growth delay and response rate or partial or complete regression (PR or CR). In a PR, the tumor volume was 50% or less of its Day 1 volume for three consecutive measurements, and equal to or greater than 14 mm^3 for one or more of these three measurements. In a CR, the tumor volume was less than 14 mm^3 for three consecutive measurements. An animal with a CR response at termination was additionally classified as tumor-free survivior (TFS). A Student's T-test was performed to calculate statistical significance (p<0.05).

[2] = Phase 1 trial: plasma pharmacokinetics by LC-MS/MS and population PK model (SN-38 exposure and half-life); conditions: plasma analyte after administration of Compound I
[3] = cited from earlier work

With `N.N.[Cl][Pt][Cl]` [cisplatin] the “activity in A2780 ovarian tumor model” value [1] was “inactive”.

In the case of `CCc1c2c(nc3ccc(O)cc13)-c1cc3c(c(=O)n1C2)COC(=O)[C@]3(O)CC` [SN-38, 7-ethyl-10-hydroxy camptothecin], the “T1/2 λz, In Responding Patients (range)” value [2] is reported as 14.4 to 98.3 days and the “T1/2 λz, Population Estimate in Responding Patients” value [2] is reported as 49.1 days.

For `CCc1c2c(nc3ccc(OC(=O)N4CCC(N5CCCCC5)CC4)cc13)-c1cc3c(c(=O)n1C2)COC(=O)[C@]3(O)CC` [irinotecan], the “tumor growth delay (TGD)” value ([1]; 50 mg/kg) was 12 days, the “tumor growth delay (TGD)” value ([1]; 100 mg/kg) was 15 days and the “tumor growth delay (TGD)” value ([1]; 150 mg/kg) was 16 days. For the same molecule, the tolerability in mice ([1]; 3 weekly intravenous doses of 50, 100, or 150 mg/kg) was “acute effects immediately after dosing (tremors, hypoactivity, ataxia, pilo-erection, increased stool production)”, the “partial responses (PR)” value ([1]; highest dose (150 mg/kg), n=10) was “one partial response (PR)” and the SN-38 plasma levels ([3]; higher doses (2.8, 4.6 mg/m^2 per day), dosing period of 63 days) was 2 to 4 ng/mL. The SN-38 plasma levels ([3]; lowest dose (1.4 mg/m^2 per day continuous iv infusion), up to 63 days) was “around 1 ng/ml”.

In the case of `N.N.O=C([O-])C1(C(=O)[O-])CCC1.[Pt+2]` [carboplatin], the “activity in A2780 ovarian tumor model” value [1] is reported as “inactive”.
